From patent publication US5183899A, “Pyrazole derivative” (Takeda Chemical Industries, Ltd., priority 1989, dated 1993)

Biological target: T1, angiotensin II receptor (Bos taurus, UniProt P25104)
T1 construct: An A II receptor membrane fraction was prepared from bovine adrenal cortex; from tissue; host or cells: bovine adrenal cortex, receptor membrane fraction
T1 sequence (P25104 1-359): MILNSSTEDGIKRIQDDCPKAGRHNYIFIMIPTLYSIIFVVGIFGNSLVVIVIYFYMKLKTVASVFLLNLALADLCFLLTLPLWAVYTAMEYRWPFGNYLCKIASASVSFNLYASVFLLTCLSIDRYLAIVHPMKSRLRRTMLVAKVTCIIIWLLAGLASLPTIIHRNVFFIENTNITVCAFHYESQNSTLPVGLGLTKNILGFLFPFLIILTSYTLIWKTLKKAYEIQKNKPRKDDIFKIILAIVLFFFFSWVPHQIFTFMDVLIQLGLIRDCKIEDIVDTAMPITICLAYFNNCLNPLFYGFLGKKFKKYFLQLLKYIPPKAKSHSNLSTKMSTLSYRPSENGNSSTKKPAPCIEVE
Assay: Inhibition of binding of angiotensin II to angiotensin receptors (125I-angiotensin II binding, receptor membrane fraction from bovine adrenal cortex)
Conditions: 125I-A II, room temperature, 1 hour; for inhibition at 10 µM: 1 × 10^-5 (M); for inhibition at 1 µM: 1 × 10^-6 (M)
Procedure: Inhibition of binding of angiotensin II to angiotensin receptors
An experiment of inhibition of angiotensin II (A (II) receptor binding was conducted according to the modified Douglas et al's method [Endocrinology,102, 685-695 (1978)]. An A II receptor membrane fraction was prepared from bovine adrenal cortex.
the compound of the present invention (10^-6 -10^-5 M) and ^125 I-angiotensin II (^125 I-A II) (1.85 kBq/50 μl) were added to the receptor membrane fraction and incubated at room temperature for 1 hour. Bound and free ^125 I-A II's were separated through a filter (Whatman GF/B filter), and the radioactivity of ^125 I-A II bound to the receptor was measured.

Structure (SMILES)	inhibition at 10 µM	inhibition at 1 µM
CCCCc1cc(C(=O)OCC)nn1Cc1ccc(-c2ccccc2-c2nn[nH]n2)cc1 [compound 1]	92%	75%
CCCCNC(=O)c1cc(CCCC)n(Cc2ccc(-c3ccccc3-c3nn[nH]n3)cc2)n1 [compound 2]	95%	80%
CCCCc1cc(C(=O)NC(C)(C)C)nn1Cc1ccc(-c2ccccc2-c2nn[nH]n2)cc1 [compound 3]	94%	81%
CCCCc1cc(C(=O)NC2CCCCC2)nn1Cc1ccc(-c2ccccc2-c2nn[nH]n2)cc1 [compound 5]	98%	93%
CCCCc1cc(C(=O)NCc2ccccc2)nn1Cc1ccc(-c2ccccc2-c2nn[nH]n2)cc1 [compound 6]	95%	83%
CCCCc1cc(C(=O)Nc2ccccc2)nn1Cc1ccc(-c2ccccc2-c2nn[nH]n2)cc1 [compound 7]	97%	91%
CCCCc1cc(C(=O)NC2Cc3ccccc3C2)nn1Cc1ccc(-c2ccccc2-c2nn[nH]n2)cc1 [compound 8]	95%	86%
CCCCc1cc(C(=O)NOCc2ccccc2)nn1Cc1ccc(-c2ccccc2-c2nn[nH]n2)cc1 [compound 9]	96%	73%
CCCCc1cc(C(=O)NCC)nn1Cc1ccc(-c2ccccc2-c2nn[nH]n2)cc1 [compound 12]	97%	85%
CCCCc1cc(C(=O)NCCC)nn1Cc1ccc(-c2ccccc2-c2nn[nH]n2)cc1 [compound 13]	99%	85%
CCCCc1cc(C(N)=O)nn1Cc1ccc(-c2ccccc2-c2nn[nH]n2)cc1 [compound 14]	93%	75%

Now from value to compound:

inhibition at 10 µM	inhibition at 1 µM	Structure (SMILES)
95%	88%	CCCCc1cc(C(=O)NCCOC)nn1Cc1ccc(-c2ccccc2-c2nn[nH]n2)cc1 [compound 15]
95%	91%	CCCCc1cc(C(=O)NC(C)C)nn1Cc1ccc(-c2ccccc2-c2nn[nH]n2)cc1 [compound 16]
98%	91%	CCCCc1cc(C(=O)OC(C)C)nn1Cc1ccc(-c2ccccc2-c2nn[nH]n2)cc1 [compound 17]
88%	54%	CCCCCc1cc(C(=O)OCC)nn1Cc1ccc(-c2ccccc2-c2nn[nH]n2)cc1 [compound 18]
90%	62%	CCCc1cc(C(=O)OCC)nn1Cc1ccc(-c2ccccc2-c2nn[nH]n2)cc1 [compound 19]
94%	66%	CCCCc1cc(C(=O)OCC(F)(F)F)nn1Cc1ccc(-c2ccccc2-c2nn[nH]n2)cc1 [compound 20]
90%	61%	CCCCc1cc(C(=O)OC)nn1Cc1ccc(-c2ccccc2-c2nn[nH]n2)cc1 [compound 22]
96%	77%	CCCCc1cc(C(=O)N2CCCC2)nn1Cc1ccc(-c2ccccc2-c2nn[nH]n2)cc1 [compound 25]
97%	92%	CCCCc1cc(C(=O)N2CCOCC2)nn1Cc1ccc(-c2ccccc2-c2nn[nH]n2)cc1 [compound 27]
89%	38%	CCCCc1cc(C(=O)N2CCN(C(c3ccccc3)c3ccccc3)CC2)nn1Cc1ccc(-c2ccccc2-c2nn[nH]n2)cc1 [compound 31]
88%	32%	CCCCc1cc(C(=O)N2CCC(C(c3ccccc3)c3ccccc3)CC2)nn1Cc1ccc(-c2ccccc2-c2nn[nH]n2)cc1 [compound 32]
